Measurements as given in ChEMBL document CHEMBL4364246, “Synthesis and biological evaluation of 5-aminoethyl benzophenanthridone derivatives as DNA topoisomerase IB inhibitors” (Eur J Med Chem, 2019).

Assays:
UACC-257 = assay: Growth inhibition of human UACC257 cells incubated for 48 hrs by sulforhodamine B assay; type: functional; conditions: UACC-257, 48 h
Hs-578T = assay: Growth inhibition of human Hs 578T cells incubated for 48 hrs by sulforhodamine B assay; type: functional
U-251 = assay: Growth inhibition of human U251 cells incubated for 48 hrs by sulforhodamine B assay; type: functional; conditions: U-251, 48 h
EKVX = assay: Growth inhibition of human EKVX cells incubated for 48 hrs by sulforhodamine B assay; type: functional
MDA-MB-468 = assay: Growth inhibition of human MDA-MB-468 cells incubated for 48 hrs by sulforhodamine B assay; type: functional; conditions: MDA-MB-468, 48 h
SW-620 = assay: Growth inhibition of human SW620 cells incubated for 48 hrs by sulforhodamine B assay; type: functional; conditions: SW-620, 48 h
NCI-H226 = assay: Growth inhibition of human NCI-H226 cells incubated for 48 hrs by sulforhodamine B assay; type: functional; conditions: NCI-H226, 48 h
MCF7 = assay: cells; conditions: Homo sapiens, MCF7, 72 h
[1] = system: Panel NCI-60 (60 carcinoma cell lines); assay: Growth inhibition of human NCI60 incubated for 48 hrs by sulforhodamine B assay; type: functional
RPMI-8226 = assay: Growth inhibition of human RPMI8226 cells incubated for 48 hrs by sulforhodamine B assay; type: functional; conditions: RPMI-8226, 48 h
A549 [2] = assay: Growth inhibition of human A549/ATCC cells incubated for 48 hrs by sulforhodamine B assay; type: functional; conditions: A549, 48 h
MOLT-4 = assay: Growth inhibition of human MOLT4 cells incubated for 48 hrs by sulforhodamine B assay; type: functional; conditions: MOLT-4, 48 h
786-0 = assay: Growth inhibition of human 786-0 cells incubated for 48 hrs by sulforhodamine B assay; type: functional; conditions: 786-0, 48 h
A549 [3] = assay: cells; conditions: Homo sapiens, A549, 72 h
OVCAR-4 = assay: Growth inhibition of human OVCAR4 cells incubated for 48 hrs by sulforhodamine B assay; type: functional; conditions: OVCAR-4, 48 h
M14 = assay: Growth inhibition of human M14 cells incubated for 48 hrs by sulforhodamine B assay; type: functional; conditions: M14, 48 h
K562 = assay: Growth inhibition of human K562 cells incubated for 48 hrs by sulforhodamine B assay; type: functional; conditions: K562, 48 h
T47D = assay: Growth inhibition of human T47D cells incubated for 48 hrs by sulforhodamine B assay; type: functional
UO-31 = assay: Growth inhibition of human UO31 cells incubated for 48 hrs by sulforhodamine B assay; type: functional; conditions: UO-31, 48 h
CAKI-1 = assay: Growth inhibition of human Caki1 cells incubated for 48 hrs by sulforhodamine B assay; type: functional; conditions: CAKI-1, 48 h
MDA-MB-435 = assay: Growth inhibition of human MDA-MB-435 cells incubated for 48 hrs by sulforhodamine B assay; type: functional; conditions: MDA-MB-435, 48 h
SF-295 = assay: Growth inhibition of human SF295 cells incubated for 48 hrs by sulforhodamine B assay; type: functional; conditions: SF-295, 48 h
SF-539 = assay: Growth inhibition of human SF539 cells incubated for 48 hrs by sulforhodamine B assay; type: functional; conditions: SF-539, 48 h
NCI-H460 = assay: Growth inhibition of human NCI-H460 cells incubated for 48 hrs by sulforhodamine B assay; type: functional; conditions: NCI-H460, 48 h
LOX IMVI = assay: Growth inhibition of human LOXIMVI cells incubated for 48 hrs by sulforhodamine B assay; type: functional
RXF 393 = assay: Growth inhibition of human RXF393 cells incubated for 48 hrs by sulforhodamine B assay; type: functional; conditions: RXF 393, 48 h
OVCAR-3 = assay: Growth inhibition of human OVCAR3 cells incubated for 48 hrs by sulforhodamine B assay; type: functional; conditions: OVCAR-3, 48 h
OVCAR-5 = assay: Growth inhibition of human OVCAR5 cells incubated for 48 hrs by sulforhodamine B assay; type: functional; conditions: OVCAR-5, 48 h
Malme-3M = assay: Growth inhibition of human MALME-3M cells incubated for 48 hrs by sulforhodamine B assay; type: functional
UACC-62 = assay: Growth inhibition of human UACC62 cells incubated for 48 hrs by sulforhodamine B assay; type: functional; conditions: UACC-62, 48 h
[4] = Cmax in Sprague-Dawley rat at 5 mg/kg, ig measured for 0.083 to 4 hrs by LC-MS/MS analysis; type: ADME, organism-based; parameters: dose 5 mg/kg, route […]; conditions: in vivo, po
[5] = Solubility of the compound in DMSO; type: physicochemical
[6] = MRT (0 to infinity) in Sprague-Dawley rat at 1 mg/kg, iv measured for 0.083 to 4 hrs by LC-MS/MS analysis; conditions: in vivo
[7] = AUC (0 to t) in Sprague-Dawley rat at 5 mg/kg, ig measured for 0.083 to 4 hrs by LC-MS/MS analysis; type: ADME, organism-based; parameters: time upper 4 hr, dose 5 mg/kg, time lower 0.083 hr, route […]; conditions: in vivo, po
HCT-116 [8] = assay: Induction of apoptosis in human HCT116 cells assessed as viable cells at 2 uM incubated for 24 hrs by FITC and PI staining based flow cytometric analysis (reference value: 99.27%); type: functional; conditions: HCT-116, 24 h, read-out: Activity
HCT-116 [9] = assay: Induction of apoptosis in human HCT116 cells assessed as viable cells at 1 uM incubated for 24 hrs by FITC and PI staining based flow cytometric analysis (reference value: 99.27%); type: functional; conditions: HCT-116, 24 h, read-out: Activity
[10] = Growth inhibition of human DU145/RC0.1 cells harboring TOP1 R364H mutant incubated for 72 hrs by MTT assay; type: functional; conditions: DU-145, 72 h
HCT-116 [11] = assay: Induction of apoptosis in human HCT116 cells assessed as increase in apoptotic cells incubated for 24 hrs by FITC and PI staining based flow cytometric analysis; type: functional, cell-based
HCT-116 [12] = assay: Antitumour activity against human HCT116 cells xenografted in athymic nude nu/nu mouse assessed as inhibition in tumor weight at 20 mg/kg administrated daily by caliper method relative to control; type: functional

SMILES | GI50 (UACC-257) | GI50 (Hs-578T) | GI50 (U-251) | GI50 (EKVX) | GI50 (MDA-MB-468) | GI50 (SW-620) | GI50 (NCI-H226) | GI50 (MCF7) | GI50 [1] | GI50 (RPMI-8226) | GI50 (A549 [2]) | GI50 (MOLT-4) | GI50 (786-0) | GI50 (A549 [3]) | GI50 (OVCAR-4) | GI50 (M14) | GI50 (K562) | GI50 (T47D) | GI50 (UO-31) | GI50 (CAKI-1) | further results
COc1cc2c(=O)n(CCN)c3c4cc5c(cc4ccc3c2cc1OC)OCO5 | 1.9 µM | 1.96 µM | 0.26 µM | 1.36 µM | 0.157 µM | 0.243 µM | 1.34 µM | 0.1 µM | 0.525 µM | 0.257 µM | 0.584 µM | 0.0633 µM | 0.464 µM | 0.98 µM | 0.782 µM | 0.324 µM | 0.161 µM | 0.368 µM | 0.35 µM | 0.295 µM | GI50 (MDA-MB-435): 0.759 µM; GI50 (SF-295): 0.279 µM; GI50 (SF-539): 1.06 µM; GI50 (NCI-H460): 0.23 µM; GI50 (LOX IMVI): 0.246 µM; GI50 (RXF 393): 0.929 µM; GI50 (OVCAR-3): 0.826 µM; GI50 (OVCAR-5): 1.2 µM; GI50 (Malme-3M): 0.613 µM; GI50 (UACC-62): 0.278 µM
CNCCn1c(=O)c2cc(OC)c(OC)cc2c2ccc3cc4c(cc3c21)OCO4 | 0.122 µM | 0.904 µM | 0.0394 µM | 0.202 µM | 0.0599 µM | 0.0658 µM | 0.172 µM | 0.09 µM | 0.0977 µM | 0.0763 µM | 0.0948 µM | 0.0234 µM | 0.0703 µM | 0.97 µM | 0.154 µM | 0.0581 µM | 0.0394 µM | 0.0757 µM | 0.104 µM | 0.0644 µM | Cmax [4]: 0.019 µg/mL; solubility [5]: Soluble; MRT inf [6]: 1.46 h; AUCt [7]: 0.0483 µg·h/mL; viability at 2 µM (HCT-116 [8]): 69.4%; viability at 1 µM (HCT-116 [9]): 88.1%; GI50 [10]: 0.43 µM; Activity (HCT-116 [11]): Dose-dependent effect; GI50 (MDA-MB-435): 0.118 µM; inhibition in vivo at 20 mg/kg (HCT-116 [12]): 76.9%; GI50 (SF-295): 0.0346 µM; GI50 (SF-539): 0.124 µM; GI50 (NCI-H460): 0.0212 µM; GI50 (LOX IMVI): 0.0389 µM; GI50 (RXF 393): 0.16 µM; GI50 (OVCAR-3): 0.166 µM; GI50 (OVCAR-5): 0.183 µM; GI50 (Malme-3M): 0.174 µM; GI50 (UACC-62): 0.0451 µM
